Publication PMC8027839 (Scientific Reports, 2021)
Entries after “also recorded” stand apart in the source; their conditions may differ. Where two headings read alike, the source gives them in different places.

Legend:
[1] = biological target: T1, SapM (Mycobacterium tuberculosis, UniProt O53361); experiment: biochemical; type: biochemical; conditions: for remaining activity at 100 µM: 0.5 h, read-out: %SA (percentage specific activity of SapM); for IC50: pNPP assay, dose-response; for inhibition at 100 µM: read-out: inhibition of SapM activity (reduction in SA)
T1 construct: made in house; host or cells: Escherichia coli C41 (DE3)
T1 sequence (O53361 44-299): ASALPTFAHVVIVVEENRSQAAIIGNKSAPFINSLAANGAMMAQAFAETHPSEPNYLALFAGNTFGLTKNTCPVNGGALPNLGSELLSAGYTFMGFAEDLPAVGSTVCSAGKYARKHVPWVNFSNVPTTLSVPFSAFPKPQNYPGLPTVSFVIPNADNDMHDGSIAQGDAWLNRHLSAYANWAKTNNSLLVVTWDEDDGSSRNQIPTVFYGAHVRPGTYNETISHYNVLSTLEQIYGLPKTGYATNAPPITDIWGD

[2] = Compound precipitation in enzyme assays; type: physicochemical; conditions: SapM dose-response assay
[3] = biological target: T1, SapM; experiment: Microscale thermophoresis of SapM binding; conditions: for EC50: MST titration
Experimental: Microscale thermophoresis (MST) was used to study the direct binding interaction of SapM with three compounds 1, 2 and 13. SapM was labelled with NTA-647nm dye which attaches to the 6-histidine tag. 100 nM NTA-647 was incubated with 200 nM SapM for 1-hour at 4 °C and then centrifuged at 20,000 rcf for 20 minutes at 4 °C in 20 mM HEPES, 200 mM NaCl pH 7.0. 10 mM compound was diluted to 500 μM in the same buffer. Binding checks were carried out with labelled SapM (5 nM) with and without 250 nM compound with LED power of 20% and a medium MST power in a Monolith Pico instrument and using standard capillaries. Binding analysis was performed with a doubling serial dilution from 250 nM with 16 dilutions and a constant concentration of 5 nM labelled SapM.

[4] = biological target: T1, SapM; experiment: Type of inhibition of SapM, Lineweaver-Burk plots; type: biochemical
Description: To determine the type of inhibition different inhibitor concentrations were selected to yield around 30% and 75% inhibition for each concentration of pNPP. This ensures sufficient signal to obtain accurate data while allowing a significant inhibition effect. Velocity (V) was plotted as a function of pNPP concentration and fit in a Lineweaver–Burk plot (double-reciprocal) using GraphPad Prism 8.41. All assays were done in 96-well microplates and performed in triplicate in at least two independent experiments.

[5] = biological target: MptpA (Mycobacterium tuberculosis, UniProt P9WIA1); experiment: biochemical; conditions: pNPP assay, pH 6
[6] = biological target: T2, PTP1B (Homo sapiens, UniProt P18031); experiment: hPTP1B inhibition, pNPP assay; type: biochemical
T2 sequence (P18031 1-435): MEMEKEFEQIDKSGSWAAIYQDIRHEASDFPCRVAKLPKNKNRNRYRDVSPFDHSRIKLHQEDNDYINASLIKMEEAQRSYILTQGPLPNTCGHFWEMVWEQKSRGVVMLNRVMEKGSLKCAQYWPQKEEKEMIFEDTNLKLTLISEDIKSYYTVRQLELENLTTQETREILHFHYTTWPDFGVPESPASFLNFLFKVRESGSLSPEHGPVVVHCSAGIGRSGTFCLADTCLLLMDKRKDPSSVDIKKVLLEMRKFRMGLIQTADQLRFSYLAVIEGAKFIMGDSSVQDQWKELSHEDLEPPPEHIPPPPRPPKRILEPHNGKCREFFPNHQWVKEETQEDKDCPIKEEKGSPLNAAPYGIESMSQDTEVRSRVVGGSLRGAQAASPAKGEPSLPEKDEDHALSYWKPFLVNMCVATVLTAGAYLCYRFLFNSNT

[7] = biological target: MptpB (Mycobacterium tuberculosis, UniProt I6WXK4); experiment: biochemical; conditions: pNPP assay, pH 6
[8] = biological target: VHR (Homo sapiens, UniProt P51452); experiment: hVHR inhibition, pNPP assay; type: biochemical
[9] = system: Mtb H37Rv strain; experiment: Mycobacterium tuberculosis infection assay in THP-1 macrophages; type: cell-based; conditions: resting THP-1 macrophages; 1 µM and 40 µM; 24 h and 72 h post infection
[10] = system: M. bovis BCG ΔsapM; type: cell-based; conditions: 40 µM
[11] = system: M. bovis BCG wild-type; type: cell-based; conditions: Raw 264.7 macrophages; 40 µM; 72 h post-infection; vs DMSO
[12] = compounds at 100 µM, relative to pNPP DMSO control

Sequence of MptpB (I6WXK4 whole entry, looked up): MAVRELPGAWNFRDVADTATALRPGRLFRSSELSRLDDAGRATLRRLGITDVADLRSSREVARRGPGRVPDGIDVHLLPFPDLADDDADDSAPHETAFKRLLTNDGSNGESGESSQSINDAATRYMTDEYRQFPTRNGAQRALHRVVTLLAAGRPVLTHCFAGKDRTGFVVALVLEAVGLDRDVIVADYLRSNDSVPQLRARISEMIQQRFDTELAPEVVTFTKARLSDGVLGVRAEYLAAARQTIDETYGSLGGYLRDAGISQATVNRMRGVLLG
Sequence of MptpA (P9WIA1 whole entry): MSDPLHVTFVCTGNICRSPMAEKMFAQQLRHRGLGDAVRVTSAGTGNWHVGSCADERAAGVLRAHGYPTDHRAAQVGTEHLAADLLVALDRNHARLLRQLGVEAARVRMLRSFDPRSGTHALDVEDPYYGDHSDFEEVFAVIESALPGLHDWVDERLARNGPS
Sequence of VHR (P51452 whole entry): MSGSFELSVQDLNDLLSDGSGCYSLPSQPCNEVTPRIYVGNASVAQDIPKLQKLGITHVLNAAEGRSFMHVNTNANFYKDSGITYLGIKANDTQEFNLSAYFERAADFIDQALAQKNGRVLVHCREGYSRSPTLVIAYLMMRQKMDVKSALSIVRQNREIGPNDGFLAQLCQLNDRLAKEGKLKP

## CC(C)=CC[C@@H](O)C1=CC(=O)c2c(O)ccc(O)c2C1=O [Compound 21, Shikonin]
[1]; [12]
  remaining activity at 100 µM: 88.9 ± 4.3%

## O=c1cc(-c2ccc(O)cc2)oc2cc(O)cc(O)c12 [Compound 22, Apigenin]
[1]; [12]
  remaining activity at 100 µM: 103 ± 1.1%

## N#CC(=Cc1ccc2[nH]ccc2c1)C(N)=C(C#N)C#N [Compound 18, Tyrphostin AG 370]
[1]; [12]
  %SA (percentage specific activity of SapM): 94.6 ± 3.1%

## N[C@H](C(=O)O)[C@H](O)c1ccc(O)c(O)c1 [Compound 27, L-DOPS]
[1]; [12]
  remaining activity at 100 µM: 85.9 ± 4.2%

## N#Cc1c2nc3ccccc3nc2n2ccc(NC(=O)c3cccs3)cc12 [Compound 4, HI-TOPK-32]
[2]
  concentration at which compound precipitates: > 100 µM
[1]
  %SA (percentage specific activity of SapM): 20.5 ± 3.7%

## Tyrphostin AG 114 [Compound 15]
[1]; [12]
  %SA (percentage specific activity of SapM): 48.6 ± 1.1%
[1]
  IC50: 78.4 ± 2.7 µM

## N#CC(C#N)=C(N)/C(C#N)=C/c1cc(O)c(O)c(O)c1 [Compound 13, Tyrphostin AG 183]
[3]
  binding to SapM by MST: confirmed
[3]; Bivalent fit EC50 (1), tighter binding mode
  EC50: 0.59 µM
[4]
  mechanism of inhibition of SapM: uncompetitive inhibitors
[5]
  IC50: 16.7 ± 1 µM
[6]; pNPP assay, pH 5.5, read-out: IC50 PTP1B
  IC50: > 100 µM
[7]
  IC50: > 100 µM
[1]; compounds at 100 µM
  effect on SapM enzyme activity: completely abolished enzyme activity; also recorded: abolished enzyme activity completely
[1]; [12]
  %SA (percentage specific activity of SapM): 0%
[1]
  IC50: 8.2 ± 1 µM
[8]; pNPP assay, pH 5.5, read-out: IC50 VHR
  IC50: > 100 µM

## Cc1cc(O)c2c(c1)C(=O)c1cc(O)cc(O)c1C2=O [Compound 25, Emodin]
[1]; [12]
  remaining activity at 100 µM: 68.6 ± 7.2%
[1]; compounds at 100 µM
  inhibition at 100 µM: ~30%

## O=c1c(-c2ccc(O)cc2)coc2cc(O)cc(O)c12 [Compound 24, Genistein]
[1]; [12]
  remaining activity at 100 µM: 84.1 ± 6.4%

## N#C/C(=C\c1ccc(O)c(O)c1)C(=O)c1ccc(O)c(O)c1 [Compound 11, Tyrphostin AG 538]
[1]; [12]
  %SA (percentage specific activity of SapM): 100.2 ± 0.3%

## Oc1cc(O)c2c(c1)O[C@H](c1ccc(O)c(O)c1)[C@@H](O)C2 [Compound 33, (+)-Catechin]
[1]; [12]
  %SA (percentage specific activity of SapM): 95.9 ± 12.3%

## O=c1oc2c(cc1O)oc(=O)c1cc(O)c(O)c(O)c12 [Compound 2, Galloflavin]
[3]
  binding to SapM by MST: confirmed
[3]; read-out: Single species dose response EC50
  EC50: 32 ± 16 µM
[9]
  Mtb intracellular burden vs DMSO control: significant (****p < 0.0001) reduction
[10]
  intracellular burden of ΔsapM: did not further reduce the intracellular burden
[4]
  mechanism of inhibition of SapM: uncompetitive inhibitors
[5]
  IC50: 55.2 ± 1.1 µM
[11]
  intracellular burden of wild-type M. bovis BCG: reduced the intracellular burden
[6]
  IC50: > 100 µM
[7]
  IC50: > 100 µM
[1]; [12]
  remaining activity at 100 µM: 0%
[1]; compounds at 100 µM
  effect on SapM enzyme activity: completely abolished the enzymatic activity; also recorded: inhibits SapM activity completely
[1]
  IC50: 9.3 ± 1.1 µM
[8]
  IC50: > 100 µM

## CC(C)(C)c1cc(/C=C(\C#N)C(N)=S)cc(C(C)(C)C)c1O [Compound 8, Tyrphostin AG 879]
[1]; [12]
  remaining activity at 100 µM: 78.7 ± 6.6%
[1]; compounds at 100 µM
  inhibition at 100 µM: < 21%

## N#CC(C#N)=C(N)/C(C#N)=C/c1ccc(O)cc1 [Compound 9, Tyrphostin AG 112]
[1]; compounds at 100 µM
  inhibition of SapM activity (reduction in SA): less than 21%
[1]; [12]
  %SA (percentage specific activity of SapM): 88.7 ± 1.7%

## NC(Cc1cc(O)c(O)cc1O)C(=O)O (racemic) [Compound 20, 6-Hydroxy-DL-DOPA]
[1]; compounds at 100 µM
  inhibition of SapM activity (reduction in SA): ~ 30%
[1]; [12]
  %SA (percentage specific activity of SapM): 71.7 ± 3.4%

## O.O.O=c1c(O)c(-c2ccc(O)c(O)c2)oc2cc(O)cc(O)c12 [Compound 28, Quercetin dehydrate]
[1]; compounds at 100 µM
  effect on SapM enzyme activity: none or poor activity
[1]; [12]
  %SA (percentage specific activity of SapM): 78.9 ± 9.2%
